Experimental data: patent US20240417393A1, “CERTAIN 2,5-DIAZABICYCLO[4.2.0]OCTANES AS GLP-1 RECEPTOR MODULATORS” (ASTRAZENECA AB, priority 2021, published 2024)

Assays:
[1] = target: T1, GLP-1R in a pancreatic insulinoma cell line (EndoC-PH1) (Homo sapiens, UniProt P43220); test: EndoC cAMP Accumulation Assay (HTRF); format: cell-based; settings: EndoC-PH1 human pancreatic beta cell line, endogenous GLP-1R, 30 min at rt
T1 construct: host or cells: EndoC-βH1 human pancreatic beta cell line
Text: EndoC cAMP Accumulation Assay
A HTRF cAMP assay (cAMP Gs dynamic kit; CisoBio Cat #62AM4PEJ) was used to identify agonists of GLP-1R in a pancreatic insulinoma cell line (EndoC-PH1). […] EndoC-PHlcells have detectable GLP-1R messenger ribonucleic acid (mRNA) as detected by quantitative polymerase chain reaction (qPCR). […] The EndoC-PH1 cell line is a valid model of human beta cells and applicable for screenings to identify novel drug target candidates (Mol. Metab., 2018, 8, 144-157). CisBio HTRF cAMP kits are based on a competitive immunoassay using cryptate-labelled anti-cAMP antibody and d2-labeled cAMP. The detection kit is intended for the direct is quantitative determination of cAMP. The specific signal (i.e. energy transfer) is inversely proportional to the concentration of cAMP in the standard or sample. Test compounds (10 mM in DMSO) were diluted into assay buffer (HBSS (Sigma #H8264) supplemented with 25 mM HEPES (Gibco #15630, pH 7.4), 0.1% BSA (Sigma #A3059) and 0.5 mM IBMX (Sigma #I7018) included fresh on the day of the assay) into 96 well U-bottom plates (Greiner #650201). Diluted compounds were transferred to ECHO source polypropelene plates (Labcyte #P-05525) and dose response curves were dispensed acoustically using ECHO 550 into black shallow-well u-bottom 384-well HTRF Assay Plates (Corning 4514). Cryovials of EndoC-H1 (supplied at 1×10e^7 cells/vial) were used directly for screening. The cryovials and were removed from N2(1) and thawed rapidly in a 37° C. water bath. The cells were resuspended in assay buffer and centrifuged at 300 g for 5 min. Cells were resuspended in assay buffer at the appropriate concentration, typically at 12e5 cells per mL (3000 cells per well, dependent on cell batch) and 2.5 μL diluted cells were added to all wells of destination plate by Multidrop combi reagent dispenser (Thermofisher). The plates were incubated at rt for 30 min. The assay was stopped by adding 2.5 μL anti-cAMP cryptate solution to all wells and 2.5 μL cAMP-d2 solution (both diluted 1:20 in lysis buffer) to columns 1-22 by Combi drop. A volume of 2.5 μL cAMP-d2 solution was added to wells E23 to P24 and 2.5 μL lysis buffer added to wells A23 to D24 by multichannel pipette. The plates were incubated at rt for 1 h and read on an Envision plate reader using excitation wavelength of 320 nm and emission of […] and 660 nm.
Raw data from Envision is converted to % DeltaF according to the manufacturer's instructions. Dose response curves are analysed via 4-Parameter Logistical Analysis and assay plate Z’ values obtained. Samples are graphed as percentage (%) activation plots compared to […] with assay window defined by negative control as basal cell is cAMP levels and positive control are defined by maximum GIP (82.5 nM) signal. GLP-1 (7-36 amide, Bachem H-6795) dose response curve was included on all plates.

[2] = target: T2, human GLP-1R receptor (Homo sapiens, UniProt P43220, L260F); test: CHOK1 GLP-1R cAMP Assay (HTRF); format: cell-based; settings: CHO-K1 cells stably expressing human GLP-1R (Leu260Phe variant), 20 min at rt
T2 construct: expressed in transfected cells; host or cells: CHO-K1 (ATCC CCL-61)
T2 sequence (P43220 24-463 L260F): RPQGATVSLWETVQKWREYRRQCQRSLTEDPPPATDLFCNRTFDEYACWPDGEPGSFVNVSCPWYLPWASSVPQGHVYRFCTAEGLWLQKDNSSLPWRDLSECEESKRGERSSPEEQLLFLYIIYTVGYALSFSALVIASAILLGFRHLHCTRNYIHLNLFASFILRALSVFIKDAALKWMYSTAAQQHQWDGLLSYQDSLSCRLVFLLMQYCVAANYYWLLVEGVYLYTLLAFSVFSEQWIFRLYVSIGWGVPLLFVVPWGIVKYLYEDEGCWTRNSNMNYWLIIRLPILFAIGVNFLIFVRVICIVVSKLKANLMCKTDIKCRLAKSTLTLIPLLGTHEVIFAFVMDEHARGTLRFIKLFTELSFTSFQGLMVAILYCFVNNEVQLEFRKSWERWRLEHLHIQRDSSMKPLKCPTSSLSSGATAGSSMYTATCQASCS
Protocol: A cell line stably expressing the human GLP-1R receptor (NM_002062.5, including the naturally-occurring variant Leu260Phe) in a CHO-K1 (ATCC® CCL-61™) was used for assay.
GLP-1 receptor mediated agonist activity was determined in a cell-based assay measuring cyclic adenosine monophosphate (cAMP) levels in cells using Homogeneous Time-Resolved Fluorescence (HTRF) cAMP detection kit (CisBio catalog #62AM4PEC, cAMP Gs Dynamic range kit). The cAMP detection method is based on a competitive immunoassay, in which cAMP produced by the cells and cAMP labeled with the dye d2 compete for binding to a Europium-Cryptate-labeled anti-cAMP antibody. The specific HTRF signal is inversely proportional to the concentration of cAMP.
Compounds were added to individual well in 384 well-assay plates (Greiner #784076) using an Echo (LabCyte) dispenser from 10 mM stocks. Varying concentration of compounds were added to wells, and DMSO was used to normalize each well to a volume of 100 nL. A dose response curve of GLP-1(7-36)NH2 (Bachem H-6795) was included in each run. 5 μL of cAMP concentration response standards are applied in specified wells in the assay plates. Cryo-preserved cells are thawed and resuspended in assay buffer pre-heated to 37° C. (20 mM 2-[4-(2-hydroxyethyl)piperazin-1-yl]ethanesulfonic acid (HEPES) pH 7.4, 1× Hank's Balanced Salt Solution (HBSS, Life Technologies #14065) supplemented with 0.1% (w/v) bovine serum albumin (Sigma, A-7030)). Cells were centrifuged at 250*g for 5 min at rt, and resuspended in room tempered assay buffer to a final density of 0.16*10^6 cell/mL, to deliver 800 cells/well. 5 μL of assay buffer with 1 mM 3-isobutyl-1-methylxanthin (IBMX; Sigma cat I-7018) was dispensed per well in assay plates using a multidrop combi (Thermo Scientific) subsequently 5 μL of cell suspension was distributed to relevant wells in the assay using a multidrop dispenser. Assay plates were incubated 20 min at rt.
Detection reagents, Europium-Cryptate-labeled anti-cAMP antibody and cAMP labeled with the dye d2, are diluted in lysis buffer, provided by the manufacturer. 5 μL of each detection reagent is supplemented to each assay well using a multidrop dispenser. Assay plates are incubated in the dark for at least one h. The HTRF signal is measured using the HTRF module (excitation: 337 nm, emission A: 665 nm and emission B: 620 nm) in Pherastar FSX (BMG Labtech).
Raw data were converted to pM cAMP using the cAMP standard curve included in each run. Converted data were further analyzed in Genedata Screener (Genedata) and EC50 determinations were made from agonist dose-response curves analyzed with a curve fitting is program using a 4-parameter logistic dose response equation (Equation y=A+((B-A)/1+((C/x)^D))) where A is no stimulation, B is full stimulation, C is the EC50 and D is the Hill slope). The percent effect was determined relative to a saturating concentration of a full GLP-1R agonist (GLP-1(7-36)NH2 has 100% effect in this assay setup).

T1 sequence (P43220 24-463): as the sequence (P43220 24-463 L260F) above, with F237L counted along it

SMILES | EC50 [1] [nM] | EC50 [2] [nM]
C[C@]1(c2ccc(Cl)cn2)Oc2cccc(N3CCN(Cc4nc5c(Cl)cc(C(=O)O)cc5n4C[C@@H]4CCO4)[C@H]4CC[C@H]43)c2O1 (single isomer, unassigned) [Example 20d, 4-Chloro-2-(((1R*,6S*)-5-((R*)-2-(5-chloropyridin-2-yl)-2-methylbenzo[d][1,3]dioxol-4-yl)-2,5-diazabicyclo[4.2.0]octan-2-yl)methyl)-1-(((S)-oxetan-2-yl)methyl)-1H-benzo[d]imidazole-6-carboxylic acid] | 2.8 | 2.5
C[C@]1(c2ccc(Cl)cc2F)Oc2cccc(N3CCN(Cc4nc5ccc(C(=O)O)cc5n4C[C@@H]4CCO4)[C@H]4CC[C@@H]43)c2O1 (single isomer, unassigned) [Example 21a, 2-(((1R*,6R*)-5-((R*)-2-(4-Chloro-2-fluorophenyl)-2-methylbenzo[d][1,3]dioxol-4-yl)-2,5-diazabicyclo[4.2.0]octan-2-yl)methyl)-1-(((S)-oxetan-2-yl)methyl)-1H-benzo[d]imidazole-6-carboxylic acid] | 7.3 | 7
C[C@]1(c2ccc(Cl)cc2F)Oc2cccc(N3CCN(Cc4nc5ccc(C(=O)O)cc5n4C[C@@H]4CCO4)[C@H]4CC[C@@H]43)c2O1 (single isomer, unassigned) [Example 21b, 2-(((1R*,6R*)-5-((R*)-2-(4-Chloro-2-fluorophenyl)-2-methylbenzo[d][1,3]dioxol-4-yl)-2,5-diazabicyclo[4.2.0]octan-2-yl)methyl)-1-(((S)-oxetan-2-yl)methyl)-1H-benzo[d]imidazole-6-carboxylic acid] | 2200 | 340
C[C@]1(c2ccc(Cl)cn2)Oc2cccc(N3CCN(Cc4nc5ccc(C(=O)O)cc5n4C[C@@H]4CCO4)[C@H]4CC[C@@H]43)c2O1 (single isomer, unassigned) [Example 22a, 2-(((1R*,6R*)-5-((R*)-2-(5-Chloropyridin-2-yl)-2-methylbenzo[d][1,3]dioxol-4-yl)-2,5-diazabicyclo[4.2.0]octan-2-yl)methyl)-1-(((S)-oxetan-2-yl)methyl)-1H-benzo[d]imidazole-6-carboxylic acid] | 49 | 29
C[C@]1(c2ccc(Cl)cn2)Oc2cccc(N3CCN(Cc4nc5ccc(C(=O)O)cc5n4C[C@@H]4CCO4)[C@H]4CC[C@@H]43)c2O1 (single isomer, unassigned) [Example 22b, 2-(((1R*,6R*)-5-((R*)-2-(5-Chloropyridin-2-yl)-2-methylbenzo[d][1,3]dioxol-4-yl)-2,5-diazabicyclo[4.2.0]octan-2-yl)methyl)-1-(((S)-oxetan-2-yl)methyl)-1H-benzo[d]imidazole-6-carboxylic acid] | 18 | 5.3
C[C@]1(c2ccc(Cl)cn2)Oc2cccc(N3CCN(Cc4nc5c(F)cc(C(=O)O)cc5n4CC4(CC#N)CC4)[C@H]4CC[C@@H]43)c2O1 (single isomer, unassigned) [Example 23a] | 2.8 | 1.1
C[C@]1(c2ccc(Cl)cn2)Oc2cccc(N3CCN(Cc4nc5c(F)cc(C(=O)O)cc5n4CC4(CC#N)CC4)[C@H]4CC[C@@H]43)c2O1 (single isomer, unassigned) [Example 23b] | 85 | 27
C[C@]1(c2ccc(Cl)cn2)Oc2cccc(N3CCN(Cc4nc5c(F)cc(C(=O)O)cc5n4CC4(CC#N)CC4)[C@H]4CC[C@@H]43)c2O1 (single isomer, unassigned) [Example 23c] | 360 | 140
C[C@]1(c2ccc(Cl)cn2)Oc2cccc(N3CCN(Cc4nc5c(F)cc(C(=O)O)cc5n4CC4(CC#N)CC4)[C@H]4CC[C@@H]43)c2O1 (single isomer, unassigned) [Example 23d] | 7.6 | 11

Results, then the molecule that gave them:

EC50 [1] [nM] | EC50 [2] [nM] | SMILES
16 | 32 | C[C@]1(c2ccc(Cl)cn2)Oc2cccc(N3CCN(Cc4nc5c(F)cc(C(=O)O)cc5n4CC4(C#N)CC4)[C@H]4CC[C@@H]43)c2O1 (single isomer, unassigned) [Example 24a]
8 | 2.1 | C[C@]1(c2ccc(Cl)cn2)Oc2cccc(N3CCN(Cc4nc5c(F)cc(C(=O)O)cc5n4CC4(C#N)CC4)[C@H]4CC[C@@H]43)c2O1 (single isomer, unassigned) [Example 24b]
260 | 130 | COc1cc(C(=O)O)cc2c1nc(CN1CCN(c3cccc4c3O[C@@](C)(c3ccc(Cl)cn3)O4)[C@H]3CC[C@@H]31)n2CC1(C#N)CC1 (single isomer, unassigned) [Example 25a]
7.5 | 6.2 | COc1cc(C(=O)O)cc2c1nc(CN1CCN(c3cccc4c3O[C@@](C)(c3ccc(Cl)cn3)O4)[C@H]3CC[C@@H]31)n2CC1(C#N)CC1 (single isomer, unassigned) [Example 25b]
3.1 | 1.2 | COc1cc(C(=O)O)cc2c1nc(CN1CCN(c3cccc4c3O[C@@](C)(c3ccc(Cl)cn3)O4)[C@H]3CC[C@@H]31)n2CC1(C#N)CC1 (single isomer, unassigned) [Example 25c]
74 | 36 | COc1cc(C(=O)O)cc2c1nc(CN1CCN(c3cccc4c3O[C@@](C)(c3ccc(Cl)cn3)O4)[C@H]3CC[C@@H]31)n2CC1(C#N)CC1 (single isomer, unassigned) [Example 25d]
450 | 350 | C[C@]1(c2ccc(Cl)cn2)Oc2cccc(N3CCN(Cc4nc5c(Cl)cc(C(=O)O)cc5n4CC4(CC#N)CC4)[C@H]4CC[C@@H]43)c2O1 (single isomer, unassigned) [Example 26a]
2 | 1.5 | C[C@]1(c2ccc(Cl)cn2)Oc2cccc(N3CCN(Cc4nc5c(Cl)cc(C(=O)O)cc5n4CC4(CC#N)CC4)[C@H]4CC[C@@H]43)c2O1 (single isomer, unassigned) [Example 26b]
